Broadly, the IC50 is the concentration at which inhibition is half-maximal.

The target of this test is T1, Akt1 (Homo sapiens, UniProt P31749).
T1 construct: made in house; host or cells: Sf9 insect cells (baculovirus, pBlueBacHis2B)
In words: Akt1 kinase assay (33P phosphorylation of biotinylated peptide, Flash plates). The test is classed as biochemical. The text has this: The assay described below measures the phosphorylation of a biotinylated peptide by active recombinant Akt1 and other kinase isoforms. The biotinylated peptide contains a consensus sequence derived from Akt substrate Gsk3 (Glycogen synthase kinase 3). The ^33P-labeled peptide substrate was captured by streptavidin-coated Flash plates.
Active recombinant Akt1 was expressed in Sf9 insect cells and purified as described by Kumar et al., Biochim. Biophys. Acta. Jun. 15, 2001, 1526(3), 257-268. Biotinylated peptide of the sequence Bio-ahx-RPRAASF was purchased from Syn Pep (Dublin, Calif., USA).
Cloning and Expression of Human Akt1 Sf9 Cells
Human Akt1 cDNA was amplified from a marathon-ready human lung cDNA library (Clonetech) using nested oligo primers as described below. The first round of amplification was carried out using the following primers; Akt1F1 ([…]) and Akt1R1 (TCCATC […]) and for the second round amplification, the primers of the following sequence were used; Akt1F2 (GGATCCTCGG […]) and AKT1R2 (GGTACCATCGTC […]). The PCR product was subcloned into pCRScript plasmid as a BamHI/KpnI fragment and the sequence of the cDNA was confirmed by DNA sequencing. This plasmid was used as a template for reamplification of Akt1 using appropriate primers for subcloning into pBlueBaHis2B into BamH1/EcoRI sites to generate an in frame fusion to (His)6 tag and an anti-Xpress antibody epitope tag at the N-terminus. This construct was sequenced to verify the junction sequences and used for generating a recombinant baculovirus. Growth of the recombinant virus, amplification and determination of viral titer were carried out according to the instructions from the manufacturer (InVitrogen, CA).
Purification of Akt1 from Sf9 Cells
Viral stocks were used to infect large scale Sf9 cells at a multiplicity of infection (MOI) of 2.5. Cells were maintained at 27° C. for 60 h and okadaic acid was added to the cultures to a concentration of 50 nM. Cells were harvested 4 h hours later by centrifugation at 1200 rpm for 30 min followed by freezing at −80° C. until further use. All purification steps were carried out at 4° C. Whole cell pellets were suspended in buffer A (20 mM sodium phosphate buffer pH 7.8, 500 mM NaCl, 1 mM sodium vanadate, 5 mM sodium fluoride, 40 mM β-glycerophosphate, 10 mM imidazole and protease inhibitor cocktail) and lysed using a microfluidizer. The cell extract was centrifuged at 16,000×g for 10 min to remove the debris and directly loaded onto Ni-NTA Superflow resin using a FPLC pump operated at 1 ml/min. The column was washed once with buffer A, once with wash buffer B (20 mM sodium phosphate pH 6.0, 1 mM sodium vanadate, 5 mM sodium fluoride and protease cocktail) and once with wash buffer B containing 0.05% Tween-20 followed by washing with buffer A until OD260 returned to basal level. Proteins were eluted with buffer A containing 200 mM imidazole. Fractions were analyzed by electrophoresis on 10% denaturing polyacrylamide gels and fractions containing 85% pure protein band at 60 KDa were pooled and dialyzed against buffer C (20 mM Tris-HCl pH 7.5, 0.5 mM EDTA,-2 mM DTT, 145 mM NaCl, 0.1 mM sodium vanadate, 5 mM sodium fluoride, 10 mM, β-glycerophosphate and 20% glycerol). Purified protein was stored as aliquots at −80° C. Protein concentrations were determined using BCA protein assay reagent A (Catalog #23228). To examine the identity of the proteins, 2 μg of purified protein was electrophoresed on SDS-polyacrylamide gels and stained with coomassie blue dye or transferred to nitrocellulose membrane and probed with anti-Akt and anti-phospho-specific Akt antibodies using enhanced chemiluminescence (ECL) reagent according to the protocol described by the manufacturer (Amersham).
The kinase assay was performed in 96 well plates at room temperature. Assay solutions and plates were preincubated at room temperature for 5 min. […]

[1] abbreviates: read-out: IC50 (AKT1 inhibition).
[2] abbreviates: read-out: IC50 rating (AKT1 inhibition).

Structures are written as SMILES. Like-named read-outs stand apart in the source and are kept apart here.

T1 sequence (P31749 whole entry): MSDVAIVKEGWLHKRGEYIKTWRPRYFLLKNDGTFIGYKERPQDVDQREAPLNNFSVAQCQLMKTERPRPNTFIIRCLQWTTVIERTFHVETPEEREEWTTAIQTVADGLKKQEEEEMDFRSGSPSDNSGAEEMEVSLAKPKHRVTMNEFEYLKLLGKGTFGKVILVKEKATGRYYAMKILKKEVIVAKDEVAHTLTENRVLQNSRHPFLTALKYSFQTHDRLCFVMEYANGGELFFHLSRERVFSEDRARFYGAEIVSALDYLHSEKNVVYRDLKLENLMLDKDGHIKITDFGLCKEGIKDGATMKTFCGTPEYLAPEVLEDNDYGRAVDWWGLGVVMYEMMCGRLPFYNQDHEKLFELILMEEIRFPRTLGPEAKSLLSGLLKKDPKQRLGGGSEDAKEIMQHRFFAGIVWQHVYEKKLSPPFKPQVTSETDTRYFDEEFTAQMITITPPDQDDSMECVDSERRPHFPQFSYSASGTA

As for `CC(C)C[C@H]1CN(c2cnnc(-c3ccc4[nH]nc(Cl)c4c3)n2)CCN1` [Compound 64, 3-(3-chloroindazol-5-yl)-5-[(S)-3-isobutylpiperazin-1-yl]-[1,2,4]triazine], the IC50 under setting [1] stood at 6.1 nM and the IC50 under setting [2] is less than 100 nM.

Turning to `Cc1n[nH]c2ccc(-c3nncc(N4CCCC(Cc5ccccc5)(C(=O)O)C4)n3)cc12` (stereo not drawn) [Compound 65], the IC50 under setting [2] is greater than 1000 nM.

`COC(=O)C1(Cc2ccccc2)CCCN(c2cnnc(-c3ccc4[nH]nc(C)c4c3)n2)C1` (stereo not drawn) [Compound 66]: under setting [2], the IC50 was greater than 1000 nM.

On to `Nc1n[nH]c2ccc(-c3nncc(N4CCN[C@@H](Cc5ccccc5)C4)n3)cc12` [Compound 67, 3-(3-aminoindazol-5-yl)-5-[(S)-3-benzylpiperazin-1-yl]-[1,2,4]triazine], for which the IC50 under setting [2] is greater than 1000 nM.

With `Cc1n[nH]c2ccc(-c3nncc(N4CCNC(Cc5ccncc5)C4)n3)cc12` (stereo not drawn) [Compound 68, 3-(3-methylindazol-5-yl)-5-[3-(pyridin-4-ylmethyl)piperazin-1-yl]-[1,2,4]triazine], the half-maximal inhibitory concentration (IC50) under setting [2] was in the range of 100 to 1000 nM.

With `Cc1n[nH]c2ccc(-c3nncc(N4CCC(Cc5ccccc5)C4)n3)cc12` (stereo not drawn) [Compound 69, 3-(3-methylindazol-5-yl)-5-(3-benzylpyrrolidin-1-yl)-[1,2,4]triazine], the IC50 under setting [2] was in the range of 100 to 1000 nM.

Consider `c1ccc(C[C@H]2CN(c3cnnc(-c4ccc5[nH]nc(-c6ccccc6)c5c4)n3)CCN2)cc1` [Compound 70, 5-[(S)-3-benzylpiperazin-1-yl]-3-(3-phenylindazol-5-yl)-[1,2,4]triazine], for which, under setting [2], the IC50 was greater than 1000 nM.

Regarding `c1ccc(-c2n[nH]c3ccc(-c4nncc(N5CCNCC5)n4)cc23)cc1` [Compound 71, 3-(3-phenylindazol-5-yl)-5-piperazin-1-yl-[1,2,4]triazine], the IC50 under setting [2] lay within 100 to 1000 nM.

On to `CC(C)C[C@H]1CN(c2cnnc(-c3ccc4[nH]nc(-c5ccccc5)c4c3)n2)CCN1` [Compound 72, 5-[(S)-3-isobutylpiperazin-1-yl]-3-(3-phenylindazol-5-yl)-[1,2,4]triazine], for which the IC50 under setting [2] is greater than 1000 nM.

Regarding `Cc1n[nH]c2ccc(-c3nncc(N4CCN[C@@H](C(C)(C)C)C4)n3)cc12` [Compound 73, 3-(3-methylindazol-5-yl)-5-[(S)-3-tert-butylpiperazin-1-yl]-[1,2,4]triazine], the IC50 under setting [2] is 100 to 1000 nM.

With `Cc1ccccc1CC1CN(c2cnnc(-c3ccc4[nH]ncc4c3)n2)CCN1` (stereo not drawn) [Compound 74, 3-indazol-5-yl-5-[3-(2-methylbenzyl)piperazin-1-yl]-[1,2,4]triazine], the IC50 under setting [2] fell in the range of 100 to 1000 nM.

Regarding `c1cc2[nH]nc(C3CC3)c2cc1-c1nncc(N2CCNCC2)n1` [Compound 75, 3-(3-cyclopropylindazol-5-yl)-5-piperazin-1-yl-[1,2,4]triazine], under setting [2], the IC50 was greater than 1000 nM.

With `CC(C)C[C@H]1CN(c2cnnc(-c3ccc4[nH]nc(C5CC5)c4c3)n2)CCN1` [Compound 76, 3-(3-cyclopropylindazol-5-yl)-5-[(S)-3-isobutylpiperazin-1-yl]-[1,2,4]triazine], the IC50 under setting [2] lay within 100 to 1000 nM.

Turning to `c1ccc(C[C@H]2CN(c3cnnc(-c4ccc5[nH]nc(C6CC6)c5c4)n3)CCN2)cc1` [Compound 77, 5-[(S)-3-benzylpiperazin-1-yl]-3-(3-cyclopropylindazol-5-yl)-[1,2,4]triazine], the IC50 under setting [2] fell in the range of 100 to 1000 nM.

Regarding `CCc1n[nH]c2ccc(-c3nncc(N4CCNCC4)n3)cc12` [Compound 78, 3-(3-ethylindazol-5-yl)-5-piperazin-1-yl-[1,2,4]triazine], under setting [2], the IC50 was greater than 1000 nM.

For `CCc1n[nH]c2ccc(-c3nncc(N4CCN[C@@H](CC(C)C)C4)n3)cc12` [Compound 79, 3-(3-ethylindazol-5-yl)-5-[(S)-3-isobutylpiperazin-1-yl]-[1,2,4]triazine], the IC50 under setting [2] lay within 100 to 1000 nM.

Regarding `CCc1n[nH]c2ccc(-c3nncc(N4CCN[C@@H](Cc5ccccc5)C4)n3)cc12` [Compound 80, 5-[(S)-3-benzylpiperazin-1-yl]-3-(3-ethylindazol-5-yl)-[1,2,4]triazine], the IC50 under setting [2] is less than 100 nM.

As for `Cc1n[nH]c2ccc(-c3nnc(N)c(N4CCN[C@@H](C(C)(C)C)C4)n3)cc12` [Compound 81, 6-amino-3-(3-methylindazol-5-yl)-5-[(S)-3-tert-butylpiperazin-1-yl]-[1,2,4]triazine], the IC50 under setting [2] was less than 100 nM.

For `Cc1n[nH]c2ccc(-c3nnc(N)c(N4CCNC5(CCCCC5)C4)n3)cc12` [Compound 82, 6-amino-5-(1,4-diaza-spiro[5.5]undec-4-yl)-3-(3-methylindazol-5-yl)-[1,2,4]triazine], under setting [2], the IC50 lay in the range of 100 to 1000 nM.

As for `Cc1n[nH]c2ccc(-c3nnc(N)c(N4CCC(N)C4)n3)cc12` (stereo not drawn) [Compound 83, 6-amino-5-(3-aminopyrrolidin-1-yl)-3-(3-methylindazol-5-yl)-[1,2,4]triazine], the IC50 under setting [2] lay within 100 to 1000 nM.

As for `CNC1CCN(c2nc(-c3ccc4[nH]nc(C)c4c3)nnc2N)C1` (stereo not drawn) [Compound 84, 6-amino-5-(3-methylaminopyrrolidin-1-yl)-3-(3-methylindazol-5-yl)-[1,2,4]triazine], under setting [2], the IC50 lay within 100 to 1000 nM.

Take `Cc1n[nH]c2ccc(-c3nnc(N)c(N4CCNC5(CCCC5)C4)n3)cc12` [Compound 85, 6-amino-5-(6,9-diaza-spiro[4.5]dec-9-yl)-3-(3-methylindazol-5-yl)-[1,2,4]triazine]: under setting [2], the IC50 was in the range of 100 to 1000 nM.

Turning to `Cc1n[nH]c2ccc(-c3nnc(CCc4ccccc4)c(N4CCNCC4)n3)cc12` [Compound 92, 3-(3-methylindazol-5-yl)-6-phenethyl-5-(piperazin-1-yl)-[1,2,4]triazine], the IC50 under setting [2] is less than 100 nM.

On to `Cc1n[nH]c2ccc(-c3nnc(CCc4ccccc4)c(N4CCN[C@@H](C(C)C)C4)n3)cc12` [Compound 93, 5-[(S)-3-isopropylpiperazin-1-yl]-3-(3-methylindazol-5-yl)-6-phenethyl-[1,2,4]triazine], for which the IC50 reads like this: under setting [1], 1.36 nM; under setting [2], less than 100 nM.

For the compound `CCC[C@H]1CN(c2nc(-c3ccc4[nH]nc(C)c4c3)nnc2CCc2ccccc2)CCN1` [Compound 94, 3-(3-methylindazol-5-yl)-6-phenethyl-5-[(S)-3-propylpiperazin-1-yl]-[1,2,4]triazine], the IC50 under setting [2] was less than 100 nM.

The record behind these values is patent publication US7528132B2, “Kinase inhibitors” (Schering Corporation, priority 2005, dated 2009).
